Measurements taken from patent publication US8796259B2, “N3-heteroaryl substituted triazoles and N5-heteroaryl substituted triazoles useful as axl inhibitors” (Rigel Pharmaceuticals, Inc., priority 2006, dated 2014).
pIC50: −log10 of the molar value.

The compounds below were run against T1, Axl (Homo sapiens, UniProt P30530) (assay: Phospho-Akt in-cell Western assay (inhibition of Axl activity, Axl-antibody cross-linking stimulation)). Settings: Hela cells, phospho-Akt readout; compounds of formula (Ia), Table 1.
T1 construct: endogenous in cells; host or cells: HeLa cells
T1 sequence (P30530 26-894): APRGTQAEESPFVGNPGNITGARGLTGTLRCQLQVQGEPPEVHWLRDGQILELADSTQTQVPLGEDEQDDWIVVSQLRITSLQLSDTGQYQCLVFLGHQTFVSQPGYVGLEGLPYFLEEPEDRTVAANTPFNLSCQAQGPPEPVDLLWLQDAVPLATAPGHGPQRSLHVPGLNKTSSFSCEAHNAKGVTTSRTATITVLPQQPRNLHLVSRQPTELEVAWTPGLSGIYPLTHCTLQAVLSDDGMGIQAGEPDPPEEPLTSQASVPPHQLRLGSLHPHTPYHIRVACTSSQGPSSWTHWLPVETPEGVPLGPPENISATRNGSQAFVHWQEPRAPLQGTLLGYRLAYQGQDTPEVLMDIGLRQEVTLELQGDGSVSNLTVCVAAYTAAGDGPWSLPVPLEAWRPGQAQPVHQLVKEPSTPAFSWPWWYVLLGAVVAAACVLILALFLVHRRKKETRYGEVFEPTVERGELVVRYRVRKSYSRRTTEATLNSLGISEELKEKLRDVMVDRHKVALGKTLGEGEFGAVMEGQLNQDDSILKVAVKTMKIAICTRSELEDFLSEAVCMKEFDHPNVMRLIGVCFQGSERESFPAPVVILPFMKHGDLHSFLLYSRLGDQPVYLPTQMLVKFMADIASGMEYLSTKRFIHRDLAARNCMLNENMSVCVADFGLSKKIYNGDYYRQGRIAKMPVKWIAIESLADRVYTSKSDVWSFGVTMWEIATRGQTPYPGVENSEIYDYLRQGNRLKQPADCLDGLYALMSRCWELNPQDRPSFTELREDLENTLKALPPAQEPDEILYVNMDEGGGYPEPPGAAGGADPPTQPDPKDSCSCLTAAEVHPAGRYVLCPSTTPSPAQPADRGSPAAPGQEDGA
Type: cell-based
Experimental: The compounds of the invention were tested in the following assay for their ability to inhibit Axl activity.
Phospho-Akt in-Cell Western Assay
• Cell culture plate: 96 well assay plate (Corning 3610), white, clear bottom, tissue-culture treated. • Cells: Hela cells. • Starvation medium: For Axl stimulation: 0.5% FCS (fetal calf serum) in DMEM, plus Axl/Fc (extracellular domain of AXL fused to immunoglobulin Fc region) (R&D, 154-AL) 500 ng/mL. • For EGF (epidermal growth factor) stimulation: 0.5% FCS in DMEM (Dulbecco's modified Eagles medium). • Poly-L-Lysine 0.01% solution (the working solution): 10 μg/ml, dilute In PBS (phosphate buffered saline). • Axl antibody cross-linking: • 1st: Mouse anti-Axl (R&D, MAB154). • 2nd: Biotin-SP-conjugated AffiniPure goat anti-mouse IgG (H+L) (Jackson ImmunoResearch #115-065-003). • Fixing buffer: 4% formaldehyde in PBS. • Wash buffer: 0.1% TritonX-100 in PBS. • Quenching buffer: 3% H2O2, 0.1% Azide in wash buffer, Azide and hydrogen peroxide (H2O2) are added fresh. • Blocking buffer: 5% BSA in TBST (tris buffered saline plus 0.1% Tween 20). • Primary antibody: Rabbit anti-human Phospho-Akt antibody (Cell Signaling 9271): 1×250 diluted in blocking buffer. • Secondary antibody: HRP (horse radish peroxidase)-conjugated Goat anti-Rabbit secondary, stock solution: Jackson ImmunoResearch (Goat anti-Rabbit HRP, #111-035-144) 1:1 diluted in glycerol, store at −20° C. The working solution: 1×2000 dilution of stock in blocking buffer. • Chemiluminescent working solution (Pierce, 37030): SuperSignal ELISA (enzyme linked immunosorbant assay) Pico Chemiluminescent substrate. • Crystal Violet solution: Stock: 2.5% Crystal violet in methanol, filtered and kept at ambient temperature. The working solution: dilute the stock 1:20 with PBS immediately before use.
10% SDS: working solution: 5% SDS (sodium dodecylsulfate), diluted in PBS
A 96 well TC (tissue culture treated) plate was coated with 10 μg/mL poly-L-Lysine at 37° C. for 30 min, washed twice with PBS, and air-dried for 5 minutes before cells were added. Hela cells were seeded at 10,000 cells/well and the cells were starved in 100 μL starvation medium containing Axl/Fc for 24 hrs.
The cells were pre-treated with test compounds by adding 100 μL of 2× test compound to the starvation medium on the cells. The cells were incubated at 37° C. for 1 hr before stimulation.
The cells were stimulated by Axl-antibody cross-linking as follows: A 5×1st/2nd Axl antibody mixture was made (37.5 μg/mL 1st/100 μg/mL 2 nd) in starvation medium and nutated at 4° C. with thorough mixing for 1-2 hours for clustering. The resulting mix was warmed to 37° C. 50 μL of 5×Axl 1st/2nd of antibody cluster was added to the cells and the cells were incubated at 37° C. for 5 min.
After 5 minutes stimulation, the plate was flicked to remove medium and the plate was tapped onto paper towels. Formaldehyde (4.0% in PBS, 100 μL) was added to fix the cells and the cells were incubated at ambient temperature for 20 min without shaking.
The cells were washed with a plate washer buffer to remove the formaldehyde solution. The plate was flicked to removed excess wash buffer and tapped onto paper towels. Quenching buffer (100 μL) was added to each well and the cells were incubated at ambient temperature for 20 minutes without shaking.
The cells were washed with a plate washer buffer to remove the quenching buffer. Blocking buffer (100 μL) was added and the cells were incubated at ambient temperature for at least an hour with gentle shaking.
The cells were washed with a plate washer buffer and diluted primary antibody (50 μL) was added to each well (blocking buffer was added to the negative control wells instead). The plates were incubated overnight at 4° C. with gentle shaking.
The wash buffer was removed, diluted secondary antibody (100 μL) was added, and the cells were incubated at ambient temperature for 1 hour with gentle shaking. […]

SMILES	pIC50
Cc1cc(Nc2nc(N)n(-c3ncnc4ccc(F)cc34)n2)cnc1N1CCC(N2CCCC2)CC1 [compound 56, 1-(6-fluoro-quinazolin-4-yl)-N^3-(6-(4-(pyrrolidin-1-yl)piperidin-1-yl)-5-methylpyridin-3-yl)-1H-1,2,4-triazole-3,5-diamine]	> 6.00
Cc1csc2c(-n3nc(Nc4ccc(N5CC6CN(C7CC8CCC7C8)CC6C5)nc4)nc3N)nc(Cl)nc12 (stereo not drawn) [compound 57, 1-(2-chloro-7-methylthieno [3,2-d]pyrimidine-4-yl)-N^3-(6-(5-bicyclo[2.2.1]heptan-2-yl-octahydropyrrol [3,4-c]pyrrolyl)pyridine-3-yl)-1H-1,2,4-triazole-3,5-diamine]	> 6.00
COc1cc2ncnc(-n3nc(Nc4ccc(Br)nc4)nc3NC(=NC#N)Nc3ccc(Br)nc3)c2cc1OC [compound 58, 1-(6,7-dimethoxy-quinazoline-4-yl)-N^3-(6-bromopyridin-3-yl)-5-(3-(6-bromopyridin-3-yl)-2-cyano-guanadino)-1H-1,2,4-triazole-3-amine]	5.00 to 6.00
COc1cc2ncnc(-n3nc(Nc4ccc(Br)nc4)nc3N)c2cc1OC [compound 59, 1-(6,7-dimethoxy-quinazoline-4-yl)-N^3-(6-bromopyridin-3-yl)-1H-1,2,4-triazole-3,5-diamine]	< 4.70
Cc1csc2c(-n3nc(Nc4cnc5c(c4)CC4(CC5)OCCO4)nc3N)nc(Cl)nc12 [compound 60, 1-(2-chloro-7-methylthieno [3,2-d]pyrimidin-4-yl)-N^3-(7′,8′-dihydro-5′H-spiro[[1,3]dioxolane-2,6′-quinoline]-3′-yl)-1H-1,2,4-triazole-3,5-diamine]	> 6.00
Cc1csc2c(-n3nc(Nc4cnc5c(c4)CN(C(=O)C4CCN(C)CC4)CC5)nc3N)nc(Cl)nc12 [compound 61, 1-(2-chloro-7-methylthieno [3,2-d]pyrimidin-4-yl)-N^3-(6-(1-methyl-piperidin-4-ylcarbonyl)-5,6,7,8-tetrahydro-1,6-naphthyridin-3-yl)-1H-1,2,4-triazole-3,5-diamine]	> 6.00
COc1cc2ncnc(-n3nc(Nc4cnc(N5CCC(N6CCCC6)CC5)nc4)nc3N)c2cc1OC [compound 62, 1-(6,7-dimethoxy-quinazoline-4-yl)-N^3-(2-(4-pyrrolidin-1-ylpiperidin-1-yl)pyrimidin-5-yl)-1H-1,2,4-triazole-3,5-diamine]	< 4.70

Second part, the compound after the results:

pIC50	SMILES
> 6.00	CCN(CC)C1CCN(c2ccc(Nc3nc(N)n(-c4ncnc5cc(OC)c(OC)cc45)n3)cn2)C1 (stereo not drawn) [compound 45, 1-(6,7-dimethoxy-quinazoline-4-yl)-N^3-(6-(3-diethyl-amino-pyrrolidin-1-yl)pyridin-3-yl)-1H-1,2,4-triazole-3,5-diamine]
> 6.00	Cc1csc2c(-n3nc(Nc4ccc(N5CCCN(C6CC7CCC6C7)CC5)nc4)nc3N)nc(Cl)nc12 (stereo not drawn) [compound 46, 1-(2-chloro-7-methylthieno [3,2-d]pyrimidin-4-yl)-N^3-(6-(4-(bicyclo[2.2.1]heptan-2-yl)-1,4-diazepan-1-yl)pyridin-3-yl)-1H-1,2,4-triazole-3,5-diamine]
> 6.00	COc1cc2ncnc(-n3nc(Nc4ccc(N5CCCN(C6CC7CCC6C7)CC5)nc4)nc3N)c2cc1OC (stereo not drawn) [compound 47, 1-(6,7-dimethoxy-quinazoline-4-yl)-N^3-(6-(4-(bicyclo [2.2.1]heptan-2-yl)-1,4-diazepan-1-yl)pyridin-3-yl)-1H-1,2,4-triazole-3,5-diamine]
> 6.00	Cc1csc2c(-n3nc(Nc4ccc(N5CCN(CC6CC6)CC5)nc4)nc3N)nc(Cl)nc12 [compound 48, 1-(2-chloro-7-methylthieno [3,2-d]pyrimidin-4-yl)-N^3-(6-(4-cyclopropyl-methyl-piperazin-1-yl)pyridin-3-yl)-1H-1,2,4-triazole-3,5-diamine]
> 6.00	Nc1nc(Nc2ccc(N3CCN(CC4CC4)CC3)nc2)nn1-c1ccc(C(F)(F)F)cn1 [compound 49, 1-(5-trifluoro-methylpyridin-2-yl)-N^3-(6-(4-cyclopropyl-methyl-piperazin-1-yl)pyridin-3-yl)-1H-1,2,4-triazole-3,5-diamine]
> 6.00	Cc1csc2c(-n3nc(Nc4cnc5c(c4)CN(CCN(C)C)CC5)nc3N)nc(Cl)nc12 [compound 50, 1-(2-chloro-7-methylthieno [3,2-d]pyrimidine-4-yl)-N^3-(6-(2-dimethyl-aminoethyl)-5,6,7,8-tetrahydro-1,6-naphthyridin-3-yl)-1H-1,2,4-triazole-3,5-diamine]
> 6.00	Cc1csc2c(-n3nc(Nc4cnc5c(c4)CC(NC4CCN(C)CC4)CC5)nc3N)nc(Cl)nc12 (stereo not drawn) [compound 51, 1-(2-chloro-7-methylthieno [3,2-d]pyrimidine-4-yl)-N^3-(6-(1-methyl-piperidin-4-ylamino)-5,6,7,8-tetrahydro-quinolin-3-yl)-1H-1,2,4-triazole-3,5-diamine]
> 6.00	Cc1csc2c(-n3nc(Nc4cnc5c(c4)CN(C4CCCC4)CC5)nc3N)nc(Cl)nc12 [compound 52, 1-(2-chloro-7-methylthieno [3,2-d]pyrimidine-4-yl)-N^3-(6-cyclopentyl-5,6,7,8-tetrahydro-1,6-naphthyridin-3-yl)-1H-1,2,4-triazole-3,5-diamine]
> 6.00	Cc1cc(Nc2nc(N)n(-c3nccc4occc34)n2)cnc1N1CCC(N2CCCC2)CC1 [compound 53, 1-(furo[3,2-c]pyridine-4-yl)-N^3-(6-(4-(pyrrolidin-1-yl)piperidin-1-yl)-5-methylpyridin-3-yl)-1H-1,2,4-triazole-3,5-diamine]
> 6.00	Cc1cc(Nc2nc(N)n(-c3ncnc4sc5c(c34)CCC5)n2)cnc1N1CCC(N2CCCC2)CC1 [compound 54, 1-(6,7-dihydro-5H-cyclopenta [4,5]thieno[2,3-d]pyrimidin-4-yl)-N^3-(6-(4-(pyrrolidin-1-yl)piperidin-1-yl)-5-methyl-pyridin-3-yl)-1H-1,2,4-triazole-3,5-diamine]
> 6.00	Cc1nc(-n2nc(Nc3cnc(N4CCC(N5CCCC5)CC4)c(C)c3)nc2N)c2ccccc2n1 [compound 55, 1-(2-methyl-quinazolin-4-yl)-N^3-(6-(4-(pyrrolidin-1-yl)piperidin-1-yl)-5-methylpyridin-3-yl)-1H-1,2,4-triazole-3,5-diamine]
